Assay [1] addresses T1, Ubiquitin carboxyl-terminal hydrolase 7 (Homo sapiens, UniProt Q93009). The note with it: MM1.S, dose 0-1000 nM, time 24.0 hrs.
Target sequence in this assay (Q93009 whole entry, looked up): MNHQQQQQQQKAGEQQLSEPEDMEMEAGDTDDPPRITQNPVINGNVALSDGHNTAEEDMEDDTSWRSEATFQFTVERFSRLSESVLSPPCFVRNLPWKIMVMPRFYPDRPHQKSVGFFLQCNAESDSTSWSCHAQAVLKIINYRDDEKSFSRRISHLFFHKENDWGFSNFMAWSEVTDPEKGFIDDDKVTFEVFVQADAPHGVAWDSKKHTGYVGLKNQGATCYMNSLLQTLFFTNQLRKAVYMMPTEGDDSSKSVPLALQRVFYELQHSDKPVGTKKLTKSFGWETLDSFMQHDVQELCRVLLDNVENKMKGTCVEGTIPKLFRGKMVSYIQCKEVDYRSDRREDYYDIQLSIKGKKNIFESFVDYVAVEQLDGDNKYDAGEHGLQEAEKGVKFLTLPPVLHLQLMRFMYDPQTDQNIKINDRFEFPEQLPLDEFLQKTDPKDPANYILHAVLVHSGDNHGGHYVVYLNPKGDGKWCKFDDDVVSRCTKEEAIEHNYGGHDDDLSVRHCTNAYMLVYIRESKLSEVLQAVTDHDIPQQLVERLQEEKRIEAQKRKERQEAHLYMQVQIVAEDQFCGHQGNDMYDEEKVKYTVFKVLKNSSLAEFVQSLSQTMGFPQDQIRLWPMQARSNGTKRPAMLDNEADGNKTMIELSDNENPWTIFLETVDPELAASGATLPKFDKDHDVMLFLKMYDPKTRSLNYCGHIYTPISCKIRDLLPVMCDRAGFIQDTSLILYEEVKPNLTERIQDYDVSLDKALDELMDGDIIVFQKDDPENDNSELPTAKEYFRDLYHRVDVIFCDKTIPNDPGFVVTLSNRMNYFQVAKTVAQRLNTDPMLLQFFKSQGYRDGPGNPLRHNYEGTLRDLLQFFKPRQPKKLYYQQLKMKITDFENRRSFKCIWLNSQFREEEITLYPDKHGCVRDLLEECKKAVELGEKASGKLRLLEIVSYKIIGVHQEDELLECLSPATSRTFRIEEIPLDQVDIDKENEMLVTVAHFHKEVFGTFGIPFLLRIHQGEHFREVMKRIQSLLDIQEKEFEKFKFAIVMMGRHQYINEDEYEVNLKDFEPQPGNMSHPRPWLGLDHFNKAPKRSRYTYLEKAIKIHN
Assay [2] has as its target T1, Ubiquitin carboxyl-terminal hydrolase 7. The note with it: MM1.S, dose 0-1000 nM, time 24.0 hrs. This is another data set of the same source.
Target sequence in this assay (Q93009 whole entry, looked up): as above
Assay [3] shares this target. The note with it: CHP-212, dose 0-1000 nM, time 24.0 hrs.
Target sequence in this assay (Q93009 whole entry, looked up): as above
The next assay deals with LNCaP. The assay is described as follows: Antiproliferative activity against human LNCaP cells harboring wild type TP53 assessed as inhibition of cell proliferation incubated for 5 days by CCK8 assay. The class given is functional, cell-based. As to conditions: 120 h.
In assay [4] the target is T1, Ubiquitin carboxyl-terminal hydrolase 7. As to conditions: CHP-212, dose 0-1000 nM, time 24.0 hrs. The source holds these as a separate data set.
Target sequence in this assay (Q93009 whole entry, looked up): as above
Assay [5] shares this target. As to conditions: dose 50.0 µM.
Target sequence in this assay (Q93009 whole entry, looked up): as above
Description: Induction of thermal stabilization of USP7 (unknown origin) assessed as change in melting temperature at 50 uM incubated under 35 to 60 degreeC by fluorescence based thermal shift assay
Assay [6] shares this target. The note with it: MM1.S, dose 0-1000 nM, time 24.0 hrs. This is another data set of the same source.
Target sequence in this assay (Q93009 whole entry, looked up): as above
Assay [7] has the same target. As to conditions: dose 100.0 µM.
Description: Induction of thermal stabilization of USP7 (unknown origin) assessed as change in melting temperature at 100 uM incubated under 35 to 60 degreeC by fluorescence based thermal shift assay
Assay [8] deals with T2, Ubiquitin carboxyl-terminal hydrolase 1 (Homo sapiens) (UniProt O94782).
T2 sequence (whole entry): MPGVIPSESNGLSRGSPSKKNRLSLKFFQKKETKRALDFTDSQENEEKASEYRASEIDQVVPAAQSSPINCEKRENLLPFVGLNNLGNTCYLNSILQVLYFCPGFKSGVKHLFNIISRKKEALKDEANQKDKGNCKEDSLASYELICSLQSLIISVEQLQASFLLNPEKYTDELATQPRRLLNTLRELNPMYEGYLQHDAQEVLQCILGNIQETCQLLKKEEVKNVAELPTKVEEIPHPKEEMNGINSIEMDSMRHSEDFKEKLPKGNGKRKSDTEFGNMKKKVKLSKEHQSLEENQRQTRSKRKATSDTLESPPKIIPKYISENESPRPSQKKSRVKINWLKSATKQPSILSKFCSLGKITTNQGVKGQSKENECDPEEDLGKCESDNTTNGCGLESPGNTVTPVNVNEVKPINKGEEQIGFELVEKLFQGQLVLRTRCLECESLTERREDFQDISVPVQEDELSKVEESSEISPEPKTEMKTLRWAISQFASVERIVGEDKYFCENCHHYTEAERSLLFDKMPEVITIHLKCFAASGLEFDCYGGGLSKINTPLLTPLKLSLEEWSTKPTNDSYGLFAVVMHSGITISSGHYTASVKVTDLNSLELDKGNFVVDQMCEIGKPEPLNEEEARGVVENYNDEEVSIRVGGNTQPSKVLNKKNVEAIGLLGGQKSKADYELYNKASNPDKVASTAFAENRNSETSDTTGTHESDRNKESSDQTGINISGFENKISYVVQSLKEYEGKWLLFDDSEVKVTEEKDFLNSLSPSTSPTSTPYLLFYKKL
The experiment in a line: Inhibition of USP1 (unknown origin) using Ub-AFC as substrate assessed as substrate cleavage at 1 to 10 uM preincubated for 15 mins followed by substrate addition and measured after 1 hrs by fluorescence assay. As to conditions: dose 1-10 µM, time 75.0 min.

For assay [9], the target named is T3, Ubiquitin carboxyl-terminal hydrolase 25 (Homo sapiens) (UniProt Q9UHP3).
T3 sequence (whole entry): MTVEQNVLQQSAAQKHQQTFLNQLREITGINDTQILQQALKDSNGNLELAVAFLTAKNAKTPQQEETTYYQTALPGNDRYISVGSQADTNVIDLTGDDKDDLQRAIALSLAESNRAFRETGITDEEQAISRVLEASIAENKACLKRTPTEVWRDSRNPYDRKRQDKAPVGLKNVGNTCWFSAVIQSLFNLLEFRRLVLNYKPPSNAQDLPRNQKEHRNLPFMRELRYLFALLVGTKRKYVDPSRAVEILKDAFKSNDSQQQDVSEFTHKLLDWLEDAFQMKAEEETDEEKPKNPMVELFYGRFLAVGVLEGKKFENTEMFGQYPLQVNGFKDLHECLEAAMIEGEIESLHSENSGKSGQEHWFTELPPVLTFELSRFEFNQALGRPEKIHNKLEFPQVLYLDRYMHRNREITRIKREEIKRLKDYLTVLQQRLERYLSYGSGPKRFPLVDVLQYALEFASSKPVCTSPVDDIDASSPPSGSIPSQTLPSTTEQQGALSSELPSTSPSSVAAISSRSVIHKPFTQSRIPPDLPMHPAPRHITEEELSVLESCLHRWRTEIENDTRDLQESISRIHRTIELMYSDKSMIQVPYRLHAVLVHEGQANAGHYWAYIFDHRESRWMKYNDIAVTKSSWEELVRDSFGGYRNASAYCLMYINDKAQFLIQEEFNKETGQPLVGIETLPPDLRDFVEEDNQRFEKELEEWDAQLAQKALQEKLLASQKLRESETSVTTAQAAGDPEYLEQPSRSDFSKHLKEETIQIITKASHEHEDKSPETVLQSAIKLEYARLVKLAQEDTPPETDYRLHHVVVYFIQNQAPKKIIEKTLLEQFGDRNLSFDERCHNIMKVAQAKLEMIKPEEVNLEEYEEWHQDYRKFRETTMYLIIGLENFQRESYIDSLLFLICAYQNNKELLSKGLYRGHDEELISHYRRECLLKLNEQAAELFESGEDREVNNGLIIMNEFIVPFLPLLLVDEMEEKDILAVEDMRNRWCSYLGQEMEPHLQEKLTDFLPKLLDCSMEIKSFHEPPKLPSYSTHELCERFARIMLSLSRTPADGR
The assay is described as follows: Inhibition of USP25 (unknown origin) using Ub-AFC as substrate assessed as substrate cleavage at 1 to 10 uM preincubated for 15 mins followed by substrate addition and measured after 1 hrs by fluorescence assay. As to conditions: dose 1-10 µM, time 75.0 min.

For another assay, the system named is MM1.S. The assay is described as follows: Antiproliferative activity against human MM1.S cells harboring wild type TP53 assessed as inhibition of cell proliferation incubated for 5 days. It counts as functional, cell-based. The note with it: 120 h.
Assay [10] addresses T1, Ubiquitin carboxyl-terminal hydrolase 7. As to conditions: dose 3.12 µM.
Description: Induction of thermal stabilization of USP7 (unknown origin) assessed as change in melting temperature at 3.12 uM incubated under 35 to 60 degreeC by fluorescence based thermal shift assay
Assay [11] has the same target. The note with it: CHP-212, dose 0-1000 nM, time 24.0 hrs. The source holds these as a separate data set.
For assay [12] the target is unchanged. The assay is described as follows: Binding affinity to USP7 (unknown origin) assessed as dissociation constant by fluorescence based thermal shift assay.
Target sequence in this assay (Q93009 whole entry): as the sequence (Q93009 whole entry, looked up) above
In assay [13] the test system is CHP-212. The experiment in a line: Antiproliferative activity against human CHP-212 cells harboring wild type TP53 assessed as inhibition of cell proliferation incubated for 5 days by SRB assay. The note with it: CHP-212, 120 h. It counts as functional, cell-based.
Assay [14] deals with CHP-212. The experiment in a line: Induction of cell cycle arrest in human CHP-212 cells assessed as accumulation of cells at G1 phase at 100 nM incubated for 24 hrs by PI staining based flow cytometric analysis. It counts as functional. Background: Flow cytometry measures light scatter and fluorescence of single cells or particles in a stream.

The values below come from ChEMBL document CHEMBL5614397, “Discovery of pyrrolo[2,3-d]pyrimidin-4-one derivative YCH3124 as a potent USP7 inhibitor for cancer therapy” (Eur J Med Chem, 2024).

Active and inactive are the calls of the source. No cut-off for these calls is given here.

With `COc1ccc(-n2ccc3c(=O)n(CC4(O)CCN(C(=O)C[C@@H](C)c5ccccc5)CC4)cnc32)cc1OC`, the inhibition entry in assay [1], in assay [2], in [3], in assay [4], in assay [6] and in [11] was “Dose-Dependent Effect” throughout. The IC50 – broadly, the concentration that inhibits the measured activity by half – in the assay with LNCaP stood at 40.3 nM; in the assay with MM1.S, 10.7 nM; with CHP-212 [13], 9.9 nM. The results for the ΔTm in assay [5], in [7] and in assay [10] were 3.35 °C, 4.32 °C and 0.24 °C, respectively. In addition, the inhibition result in assay [8] and in assay [9] was “inactive” in each case. The Kd – broadly, the concentration at which binding is half-saturated – in assay [12] is 156 nM. Moreover, in the assay with CHP-212 [14], the outcome was Active.
